{
  "source": "paper PMC12216759",
  "about": "(Nature Communications, 2025)",
  "assay_type_in_all_cases": "biochemical",
  "key": {"SHV-5 [1]": {"target": "T1, SHV-5 (Enterobacter cloacae, UniProt Q6QNE1)", "assay": "steady-state hydrolysis kinetics of purified enzyme"}, "SHV-5 M69I [2]": {"target": "T2, SHV-5 M69I (Enterobacter cloacae, UniProt Q6QNE1, M65I)", "assay": "steady-state hydrolysis kinetics of purified enzyme"}, "SHV-5 M69I [3]": {"target": "T2, SHV-5 M69I", "assay": "hydrolysis kinetics of purified enzyme"}, "SHV-5 [4]": {"target": "T1, SHV-5", "assay": "steady-state hydrolysis kinetics of purified enzyme", "remark": "listed apart in the source"}, "SHV-5 [5]": {"target": "T1, SHV-5", "assay": "steady-state hydrolysis kinetics of purified enzyme", "remark": "listed apart in the source"}, "SHV-5 M69I [6]": {"target": "T2, SHV-5 M69I", "assay": "steady-state hydrolysis kinetics of purified enzyme", "remark": "listed apart in the source"}},
  "data": [
    {"smiles": "CC(=O)OCC1=C(C(=O)O)N2C(=O)[C@@H](NC(=O)Cc3cccs3)[C@H]2SC1", "note": "[cephalothin]", "values": [
      {"measurement": "steady-state hydrolysis kinetics of purified enzyme (UV, 262 nm)", "setting": "SHV-5 [1]", "value": "1 ×10^6 M^−1s^−1 (kcat/KM)"},
      {"measurement": "steady-state hydrolysis kinetics of purified enzyme (UV, 262 nm)", "setting": "SHV-5 M69I [2]", "value": "8 × 10^4 M^−1s^−1 (kcat/KM)"}
    ]},
    {"smiles": "CC(C)(O/N=C(\\C(=O)N[C@@H]1C(=O)N2C(C(=O)[O-])=C(C[N+]3(CCNC(=O)c4ccc(O)c(O)c4Cl)CCCC3)CS[C@H]12)c1csc(N)n1)C(=O)O", "note": "[cefiderocol]", "values": [
      {"measurement": "hydrolysis kinetics of purified enzyme (UV, 259 nm); KM too high to determine", "setting": "SHV-5 M69I [3]", "value": "1.2 × 10^3 M^−1s^−1 (kcat/KM)"},
      {"measurement": "steady-state hydrolysis kinetics of purified enzyme (UV, 259 nm)", "setting": "SHV-5 [4]", "value": "9 × 10^3 M^−1s^−1 (kcat/KM)"}
    ]},
    {"smiles": "CO/N=C(\\C(=O)N[C@@H]1C(=O)N2C(C(=O)O)=C(COC(C)=O)CS[C@H]12)c1csc(N)n1", "note": "[cefotaxime]", "values": [
      {"measurement": "steady-state hydrolysis kinetics of purified enzyme (UV, 264 nm)", "setting": "SHV-5 [5]", "value": "8 × 10^5 M^−1s^−1 (kcat/KM)"},
      {"measurement": "steady-state hydrolysis kinetics of purified enzyme (UV, 264 nm)", "setting": "SHV-5 M69I [6]", "value": "2.3 × 10^4 M^−1s^−1 (kcat/KM)"}
    ]}
  ]
}
